According to patent publication US11661413B2, “Pyrazole compounds or salts thereof, preparation method therefor, herbicidal composition and use thereof” (priority 2015, dated 2023):

System: barnyard grass, rushlike bulrush, arrowhead and beggartick
Experiment: resistance tests of the weeds collected from Heilongjing Province
Assay type: in vivo
Details: common application rate; seeds collected from Heilongjing Province of China

CCOC(=O)c1cnn(C)c1S(=O)(=O)NC(=O)Nc1nc(OC)cc(OC)n1 [pyrazosulfuron-ethyl]
resistance of the weeds (in words): resistant
